Measurements reported in patent US9914722B2, “Compounds for treating spinal muscular atrophy” (PTC Therapeutics Inc., priority 2012, dated 2018).

Key:
[1] = system: full length SMN2 minigene mRNA containing SMN2 exon 7 (SMN2-A minigene); test: SMN2 minigene mRNA splicing RT-qPCR assay in cultured cells; assay type: cell-based, human; conditions: Homo sapiens, HEK293-H; HEK293H cells stably transfected with SMN2-A minigene, 24 hours, 7-point concentration curve; concentration giving 1.5-fold SMN2 full length mRNA vs vehicle; read-out: EC1.5x for production of full length SMN2 mRNA
Method: SMN2 Minigene mRNA Splicing RT-qPCR Assay in Cultured Cells
The reverse transcription-quantitative PCR-based (RT-qPCR) assay is used to quantify the level of the full length SMN2 minigene mRNA containing SMN2 exon 7 in a HEK293H cell line stably transfected with said minigene and treated with a test compound.
Protocol. HEK293H cells stably transfected with the SMN2-A minigene construct described above (10,000 cells/well) are seeded in 200 μL of cell culture medium (DMEM plus 10% FBS, with 200 μg/mL hygromycin) in 96-well flat-bottom plates and the plate is immediately swirled to ensure proper dispersal of cells, forming an even monolayer of cells. Cells are allowed to attach for at least 4-6 hours. Test compounds are serially diluted 3.16-fold in 100% DMSO to generate a 7-point concentration curve. A solution of test compound (1 μL, 200× in DMSO) is added to each cell-containing well and the plate is incubated for 24 hours in a cell culture incubator (37° C., 5% CO2, 100% relative humidity). Two replicates are prepared for each test compound concentration. The cells are then lysed in Cells-To-Ct lysis buffer and the lysate is stored at −80° C.
Primer SMN Forward A (SEQ ID NO. 1) hybridizes to a nucleotide sequence in exon 7 (nucleotide 22 to nucleotide 40), primer SMN Reverse A (SEQ ID NO. 2) hybridizes to a nucleotide sequence in the coding sequence of Firefly luciferase, SMN Probe A (SEQ ID NO. 3) hybridizes to a nucleotide sequence in exon 7 (nucleotide 50 to nucleotide 54) and exon 8 (nucleotide 1 to nucleotide 21). The combination of these three oligonucleotides detects only SMN1 or SMN2 minigenes (RT-qPCR) and will not detect endogenous SMN1 or SMN2 genes.
The SMN forward and reverse primers are used at final concentrations of 0.4 μM. The SMN probe is used at a final concentration of 0.15 μM. The GAPDH primers are used at final concentrations of 0.2 μM and the probe at 0.15 μM.
The SMN2-minigene GAPDH mix (15 μL total volume) is prepared by combining 7.5 μL of 2×RT-PCR buffer, 0.4 μL of 25×RT-PCR enzyme mix, 0.75 μL of 20×GAPDH primer-probe mix, 4.0075 μL of water, 2 μL of 10-fold diluted cell lysate, 0.06 μL of 100 μM SMN forward primer, 0.06 μL of 100 μM SMN reverse primer, and 0.225 μL of 100 μM SMN probe.
PCR is carried out at the following temperatures for the indicated time: Step 1: 48° C. (15 min); Step 2: 95° C. (10 min); Step 3: 95° C. (15 sec); Step 4: 60° C. (1 min); then repeat Steps 3 and 4 for a total of 40 cycles.
Each reaction mixture contains both SMN2-A minigene and GAPDH primers/probe sets (multiplex design), allowing simultaneous measurement of the levels of two transcripts.
Two SMN spliced products are generated from the SMN2 minigene. The first spliced product containing exon 7, corresponding to SMN2 full length mRNA, is referred to herein using the term “SMN2 minigene FL.” The second spliced product lacking exon 7 is referred to herein using the term “SMN2 minigene Δ7.”
The increase of SMN2 minigene FL mRNA relative to that in cells treated with vehicle control is determined from real-time PCR data using a modified ΔΔCt method (as described in Livak and Schmittgen, Methods, 2001, 25:402-8). The amplification efficiency (E) is calculated from the slope of the amplification curve for SMN2 minigene FL and GAPDH mRNA individually. The abundance of SMN2 minigene FL and GAPDH mRNA are then calculated as (1+E)^−Ct, where Ct is the threshold value for each amplicon. The abundance of SMN2 minigene FL is normalized to GAPDH abundance. The normalized SMN2 minigene FL abundance from test compound-treated samples is then divided by normalized SMN2 minigene FL abundance from vehicle-treated cells to determine the level of SMN2 FL mRNA relative to vehicle control. […]

Smn protein = Smn protein assay (Smn HTRF) in cultured cells; assay type: cell-based, human; conditions: Homo sapiens, Fibroblast, GM03813 SMA Type 1 patient fibroblasts, 48 hours, HTRF; for maximal fold induction: 7-point concentration data, relative to vehicle, read-out: maximum fold (Fold) increase of Smn protein; for EC (1.5-fold): concentration producing 1.5 times Smn protein vs DMSO vehicle, read-out: EC1.5x for Smn protein expression
Method: Smn Protein Assay in Cultured Cells
The Smn HTRF (homogeneous time resolved fluorescence) assay is used to quantify the level of Smn protein in SMA patient fibroblast cells treated with test compounds.
Protocol. Cells are thawed and cultured in DMEM-10% FBS for 72 hours. Cells are trypsinized, counted and re-suspended to a concentration of 25,000 cells/mL in DMEM-10% FBS. The cell suspension is plated at 5,000 cells per well in a 96 well microtiter plate and incubated for 3 to 5 hours. […] Test compounds are serially diluted 3.16-fold in 100% DMSO to generate a 7-point concentration curve. 1 μL of test compound solution is transferred to cell-containing wells and cells are incubated for 48 hours in a cell culture incubator (37° C., 5% CO2, 100% relateive humidity). Triplicate samples are set up for each test compound concentration. After 48 hours, the supernatant is removed from the wells and 25 μL of the RIPA lysis buffer, containing protease inhibitors, is added to the wells and incubated with shaking at room temperature for 1 hour. 25 μL of the diluent is added and then 35 μL of the resulting lysate is transferred to a 384-well plate, where each well contains 5 μL of the antibody solution (1:100 dilution of anti-SMN d2 and anti-SMN kryptate in SMN reconstitution buffer). The plate is centrifuged for 1 minute to bring the solution to the bottom of the wells, then incubated overnight at room temperature. Fluorescence for each well of the plate at 665 nm and 620 nm is measured on an EnVision multilabel plate reader (Perkin-Elmer).
The normalized fluorescence signal is calculated for each sample, Blank and vehicle control well by dividing the signal at 665 nm by the signal at 620 nm. Normalizing the signal accounts for possible fluorescence quenching due to the matrix effect of the lysate. The AF value (a measurement of Smn protein abundance as a percent value) for each sample well is calculated by subtracting the normalized average fluorescence for the Blank control wells from the normalized fluorescence for each sample well, then dividing this difference by the normalized average fluorescence for the Blank control wells and multiplying the resulting value by 100. The ΔF value for each sample well represents the Smn protein abundance from test compound-treated samples. The ΔF value for each sample well is divided by the ΔF value for the vehicle control wells to calculate the fold increase in Smn protein abundance relative to the vehicle control.
For compounds of Formula (I) or a form thereof disclosed herein, Table 9 provides the EC1.5x for Smn protein expression that was obtained from the 7-point concentration data generated for each test compound according to the procedure of Biological Example 7. The term “EC1.5x for Smn protein expression” is defined as that concentration of test compound that is effective in producing 1.5 times the amount of Smn protein in an SMA patient fibroblast cell compared to the amount produced from the DMSO vehicle control. An EC1.5x for Smn protein expression between >3 μM and ≦10 μM is indicated by one star (*), an EC1.5x between >1 μM and ≦3 μM is indicated by two stars (**), an EC1.5x between >0.3 μM and ≦1 μM is indicated by three stars (***) and an EC1.5x≦0.3 μM is indicated by four stars (****).
For compounds of Formula (I) or a form thereof disclosed herein, Table 10 provides the maximum fold (Fold) increase of Smn protein that was obtained from the 7-point concentration data generated for each test compound according to the procedure of Biological Example 7. A maximum fold increase ≦1.2 is indicated by one star (*), a fold increase between >1.2 and ≦1.35 is indicated by two stars (**), a fold increase between >1.35 and ≦1.5 is indicated by three stars (***), a fold increase between >1.5 and ≦1.65 is indicated by four stars (****) and a fold increase >1.65 is indicated by five stars (*****).

Cc1ccn2cc(-c3cc(=O)c4cc(N5C[C@@H](C)N[C@@H](C)C5)ccc4o3)nc2c1 [Cpd 30, 6-[(3R,5S)-3,5-dimethylpiperazin-1-yl]-2-(7-methylimidazo[1,2-a]pyridin-2-yl)-4H-chromen-4-one]
melting point: 102 to 104 °C
EC (1.5-fold) [1]: 1 to 3 µM
maximal fold induction (Smn protein): 1.2 to 1.35

COc1ccc(-c2cc(=O)c3cc(N4CCN[C@@H](C)C4)ccc3o2)cc1OC [Cpd 31, 2-(3,4-dimethoxyphenyl)-6-[(3S)-3-methylpiperazin-1-yl]-4H-chromen-4-one]
melting point: 172 to 174 °C
EC (1.5-fold) [1]: ≤ 0.1 µM
maximal fold induction (Smn protein): > 1.65
EC (1.5-fold) (Smn protein): ≤ 0.3 µM

O=c1cc(-c2nc3ccccc3s2)oc2ccc(N3CCNCC3)cc12 [Cpd 32, 2-(1,3-benzothiazol-2-yl)-6-(piperazin-1-yl)-4H-chromen-4-one]
melting point: 250 to 254 °C
EC (1.5-fold) [1]: 1 to 3 µM
maximal fold induction (Smn protein): 1.2 to 1.35

C[C@@H]1CN(c2ccc3oc(-c4nc5ccccc5s4)cc(=O)c3c2)CCN1 [Cpd 33, 2-(1,3-benzothiazol-2-yl)-6-[(3R)-3-methylpiperazin-1-yl]-4H-chromen-4-one]
melting point: 142 to 144 °C
EC (1.5-fold) [1]: 1 to 3 µM
maximal fold induction (Smn protein): 1.2 to 1.35

C[C@@H]1CN(c2ccc3oc(-c4nc5ccccc5s4)cc(=O)c3c2)C[C@H](C)N1 [Cpd 34, 2-(1,3-benzothiazol-2-yl)-6-[(3R,5S)-3,5-dimethylpiperazin-1-yl]-4H-chromen-4-one]
melting point: 200 to 202 °C
EC (1.5-fold) [1]: 0.3 to 1 µM
maximal fold induction (Smn protein): 1.35 to 1.5

CN1CCN(c2ccc3oc(-c4nc5ccccc5s4)cc(=O)c3c2)CC1 [Cpd 35, 2-(1,3-benzothiazol-2-yl)-6-(4-methylpiperazin-1-yl)-4H-chromen-4-one]
melting point: 215 to 220 °C
EC (1.5-fold) [1]: 1 to 3 µM
maximal fold induction (Smn protein): 1.2 to 1.35

C[C@H]1CN(c2ccc3oc(-c4nc5ccccc5s4)cc(=O)c3c2)CCN1 [Cpd 36, 2-(1,3-benzothiazol-2-yl)-6-[(3S)-3-methylpiperazin-1-yl]-4H-chromen-4-one]
melting point: 140 to 142 °C
EC (1.5-fold) [1]: 0.3 to 1 µM
maximal fold induction (Smn protein): 1.5 to 1.65
EC (1.5-fold) (Smn protein): 1 to 3 µM

COc1ccc(-c2cc(=O)c3cc(N4CCNCC4)ccc3o2)cc1F [Cpd 37, 2-(3-fluoro-4-methoxyphenyl)-6-(piperazin-1-yl)-4H-chromen-4-one]
melting point: 178 to 180 °C
EC (1.5-fold) [1]: 0.1 to 0.3 µM
maximal fold induction (Smn protein): 1.35 to 1.5
EC (1.5-fold) (Smn protein): 1 to 3 µM

COc1ccc(-c2cc(=O)c3cc(N4C[C@@H](C)N[C@@H](C)C4)ccc3o2)cc1F [Cpd 39, 6-[(3R,5S)-3,5-dimethylpiperazin-1-yl]-2-(3-fluoro-4-methoxyphenyl)-4H-chromen-4-one]
melting point: 180 to 182 °C
EC (1.5-fold) [1]: 0.1 to 0.3 µM
maximal fold induction (Smn protein): 1.5 to 1.65
EC (1.5-fold) (Smn protein): 3 to 10 µM

COc1ccc(-c2cc(=O)c3cc(N4CCN[C@H](C)C4)ccc3o2)cc1F [Cpd 40, 2-(3-fluoro-4-methoxyphenyl)-6-[(3R)-3-methylpiperazin-1-yl]-4H-chromen-4-one]
melting point: 110 to 112 °C
EC (1.5-fold) [1]: 0.1 to 0.3 µM
maximal fold induction (Smn protein): 1.35 to 1.5
EC (1.5-fold) (Smn protein): 1 to 3 µM

CCOc1ccc(-c2cc(=O)c3cc(N4CCNCC4)ccc3o2)cc1 [Cpd 41, 2-(4-ethoxyphenyl)-6-(piperazin-1-yl)-4H-chromen-4-one]
melting point: 180 to 182 °C
EC (1.5-fold) [1]: 0.3 to 1 µM
maximal fold induction (Smn protein): ≤ 1.2

CCOc1ccc(-c2cc(=O)c3cc(N4CCN[C@@H](C)C4)ccc3o2)cc1 [Cpd 42, 2-(4-ethoxyphenyl)-6-[(3S)-3-methylpiperazin-1-yl]-4H-chromen-4-one]
melting point: 93 to 94 °C
EC (1.5-fold) [1]: 0.3 to 1 µM
maximal fold induction (Smn protein): 1.2 to 1.35

CCOc1ccc(-c2cc(=O)c3cc(N4CCN[C@H](C)C4)ccc3o2)cc1 [Cpd 44, 2-(4-ethoxyphenyl)-6-[(3R)-3-methylpiperazin-1-yl]-4H-chromen-4-one]
melting point: 92 to 94 °C
EC (1.5-fold) [1]: 1 to 3 µM
maximal fold induction (Smn protein): ≤ 1.2

COc1cc(F)c(-c2cc(=O)c3cc(N4CCNCC4)ccc3o2)cc1OC [Cpd 45, 2-(2-fluoro-4,5-dimethoxyphenyl)-6-(piperazin-1-yl)-4H-chromen-4-one]
melting point: 130 to 132 °C
EC (1.5-fold) [1]: 1 to 3 µM
maximal fold induction (Smn protein): 1.2 to 1.35
